Assay results reported in the supplement of paper PMC6045584.
± gives the standard deviation of the averaged measurements.

Key:
AFATINIB [1] = compound: T1, CN(C)C/C=C/C(=O)Nc1cc2c(Nc3ccc(F)c(Cl)c3)ncnc2cc1O[C@H]1CCOC1 [AFATINIB]; assay: surviving fraction relative to DMSO-only wells; higher = less growth inhibition; details: exposure time: 5 days
Procedure, shortened: (§1)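 Surviving fraction was calculated by normalising CellTiter-Glo luminescence to the median of DMSO-only wells. Tumour cell lines in log phase were seeded in 384-well plates at 250–500 cells per well, and 24 hours later were exposed continuously for five days to inhibitors at 0.5, 1, 5, 10, 50, 100, 500 and 1000 nM.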

[2] = compound: Cn1cc(C2=Nc3cc(NC(=O)C(N)C4CCCCC4)cc4c3C2=CNNC4=O)cn1; assay: as above; details: exposure time: 5 days
Procedure, shortened: as §1

BI-2536 [3] = compound: T2, CC[C@@H]1C(=O)N(C)c2cnc(Nc3ccc(C(=O)NC4CCN(C)CC4)cc3OC)nc2N1C1CCCC1 [BI-2536]; assay: as above; details: exposure time: 5 days
Procedure, shortened: as §1

CANERTINIB [4] = compound: T3, C=CC(=O)Nc1cc2c(Nc3ccc(F)c(Cl)c3)ncnc2cc1OCCCN1CCOCC1 [CANERTINIB]; assay: as above; details: exposure time: 5 days
Procedure, shortened: as §1

SAPACITABINE [5] = compound: T4, CCCCCCCCCCCCCCCC(=O)Nc1ccn([C@@H]2O[C@H](CO)[C@@H](O)[C@@H]2C#N)c(=O)n1 [SAPACITABINE]; assay: as above; details: exposure time: 5 days
Procedure, shortened: as §1

TIOGUANINE [6] = compound: T5, Nc1nc2[nH]cnc2c(=S)[nH]1 [TIOGUANINE]; assay: as above; details: exposure time: 5 days
Procedure, shortened: as §1

SNX-5422 [7] = compound: T6, CC1(C)CC(=O)c2c(C(F)(F)F)nn(-c3ccc(C(N)=O)c(N[C@H]4CC[C@H](OC(=O)CN)CC4)c3)c2C1 [SNX-5422]; assay: as above; details: exposure time: 5 days
Procedure, shortened: as §1

MDV3100 [8] = compound: T7, CNC(=O)c1ccc(N2C(=S)N(c3ccc(C#N)c(C(F)(F)F)c3)C(=O)C2(C)C)cc1F [MDV3100]; assay: as above; details: exposure time: 5 days
Procedure, shortened: as §1

AFATINIB [9] = compound: T1, AFATINIB; assay: area under dose-response curve of surviving fraction (unscaled, Aref=0) (surviving fraction x log10(nM)); higher = more resistant; details: exposure time: 5 days; dose range 0.5-1000 nM
Procedure, shortened: (§2)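 Inhibitor was applied to tumour cell lines at eight concentrations (0.5 to 1000 nM) for five days in 384-well plates. Luminescence from CellTiter-Glo, scaled to DMSO-only wells, gave surviving fractions in three screens per line, and these were fitted by 3-parameter logistic regression with the drc R package. The area under the curve is an unscaled activity area. Aref was 0, and dose was on a log10 scale.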

[10] = compound: Cn1cc(C2=Nc3cc(NC(=O)C(N)C4CCCCC4)cc4c3C2=CNNC4=O)cn1; assay: as above; details: exposure time: 5 days; dose range 0.5-1000 nM
Procedure, shortened: as §2

BI-2536 [11] = compound: T2, BI-2536; assay: as above; details: exposure time: 5 days; dose range 0.5-1000 nM
Procedure, shortened: as §2

CANERTINIB [12] = compound: T3, CANERTINIB; assay: as above; details: exposure time: 5 days; dose range 0.5-1000 nM
Procedure, shortened: as §2

SAPACITABINE [13] = compound: T4, SAPACITABINE; assay: as above; details: exposure time: 5 days; dose range 0.5-1000 nM
Procedure, shortened: as §2

TIOGUANINE [14] = compound: T5, TIOGUANINE; assay: as above; details: exposure time: 5 days; dose range 0.5-1000 nM
Procedure, shortened: as §2

SNX-5422 [15] = compound: T6, SNX-5422; assay: as above; details: exposure time: 5 days; dose range 0.5-1000 nM
Procedure, shortened: as §2

MDV3100 [16] = compound: T7, MDV3100; assay: as above; details: exposure time: 5 days; dose range 0.5-1000 nM
Procedure, shortened: as §2

**Q.** With SG43 HEADNECK as the test system, how does the surviving fraction (AFATINIB [1]; 0.5 nM) read?
**A.** 1.03 ± 0.33

**Q.** What about the surviving fraction (AFATINIB [1]; 1 nM) of the same test system?
**A.** 0.966 ± 0.27

**Q.** And the surviving fraction (AFATINIB [1]; 5 nM)?
**A.** 0.362 ± 0.022

**Q.** What about the surviving fraction (AFATINIB [1]; 10 nM) of the same test system?
**A.** 0.414 ± 0.18

**Q.** And the surviving fraction (AFATINIB [1]; 50 nM)?
**A.** 0.301 ± 0.11

**Q.** What about the surviving fraction (AFATINIB [1]; 100 nM) of the same test system?
**A.** 0.181 ± 0.044

**Q.** What about the surviving fraction (AFATINIB [1]; 500 nM) of the same test system?
**A.** 0.182 ± 0.046

**Q.** And the surviving fraction (AFATINIB [1]; 1000 nM)?
**A.** 0.0613 ± 0.035

**Q.** What about the surviving fraction ([2]; 0.5 nM) of the same test system?
**A.** 1.08 ± 0.17

**Q.** What about the surviving fraction ([2]; 1 nM) of the same test system?
**A.** 0.969 ± 0.1

**Q.** And the surviving fraction ([2]; 5 nM)?
**A.** 0.929 ± 0.19

**Q.** And the surviving fraction ([2]; 10 nM)?
**A.** 1.01 ± 0.37

**Q.** And the surviving fraction ([2]; 50 nM)?
**A.** 1.11 ± 0.21

**Q.** What about the surviving fraction ([2]; 100 nM) of the same test system?
**A.** 1.06 ± 0.15

**Q.** What about the surviving fraction ([2]; 500 nM) of the same test system?
**A.** 0.888 ± 0.098

**Q.** And the surviving fraction ([2]; 1000 nM)?
**A.** 0.968 ± 0.097

**Q.** And the surviving fraction (BI-2536 [3]; 0.5 nM)?
**A.** 0.902 ± 0.22

**Q.** What about the surviving fraction (BI-2536 [3]; 1 nM) of the same test system?
**A.** 1.04 ± 0.23

**Q.** And the surviving fraction (BI-2536 [3]; 5 nM)?
**A.** 0.734 ± 0.16

**Q.** And the surviving fraction (BI-2536 [3]; 10 nM)?
**A.** 0.715 ± 0.099

**Q.** And the surviving fraction (BI-2536 [3]; 50 nM)?
**A.** 0.454 ± 0.079

**Q.** And the surviving fraction (BI-2536 [3]; 100 nM)?
**A.** 0.323 ± 0.12

**Q.** And the surviving fraction (BI-2536 [3]; 500 nM)?
**A.** 0.17 ± 0.051

**Q.** And the surviving fraction (BI-2536 [3]; 1000 nM)?
**A.** 0.0543 ± 0.014

**Q.** And the surviving fraction (CANERTINIB [4]; 0.5 nM)?
**A.** 1.05 ± 0.074

**Q.** And the surviving fraction (CANERTINIB [4]; 1 nM)?
**A.** 1.06 ± 0.1

**Q.** And the surviving fraction (CANERTINIB [4]; 5 nM)?
**A.** 0.772 ± 0.21

**Q.** And the surviving fraction (CANERTINIB [4]; 10 nM)?
**A.** 0.816 ± 0.14

**Q.** What about the surviving fraction (CANERTINIB [4]; 50 nM) of the same test system?
**A.** 0.387 ± 0.23

**Q.** What about the surviving fraction (CANERTINIB [4]; 100 nM) of the same test system?
**A.** 0.223 ± 0.027

**Q.** What about the surviving fraction (CANERTINIB [4]; 500 nM) of the same test system?
**A.** 0.265 ± 0.05

**Q.** And the surviving fraction (CANERTINIB [4]; 1000 nM)?
**A.** 0.183 ± 0.0075

**Q.** And the surviving fraction (SAPACITABINE [5]; 0.5 nM)?
**A.** 1.04 ± 0.091

**Q.** And the surviving fraction (SAPACITABINE [5]; 1 nM)?
**A.** 1.28 ± 0.23

**Q.** What about the surviving fraction (SAPACITABINE [5]; 5 nM) of the same test system?
**A.** 1.08 ± 0.17

**Q.** And the surviving fraction (SAPACITABINE [5]; 10 nM)?
**A.** 1.11 ± 0.29

**Q.** And the surviving fraction (SAPACITABINE [5]; 50 nM)?
**A.** 0.867 ± 0.14

**Q.** What about the surviving fraction (SAPACITABINE [5]; 100 nM) of the same test system?
**A.** 1.04 ± 0.072

**Q.** What about the surviving fraction (SAPACITABINE [5]; 500 nM) of the same test system?
**A.** 0.933 ± 0.13

**Q.** And the surviving fraction (SAPACITABINE [5]; 1000 nM)?
**A.** 1.05 ± 0.04

**Q.** And the surviving fraction (TIOGUANINE [6]; 0.5 nM)?
**A.** 1 ± 0.073

**Q.** And the surviving fraction (TIOGUANINE [6]; 1 nM)?
**A.** 0.986 ± 0.23

**Q.** And the surviving fraction (TIOGUANINE [6]; 5 nM)?
**A.** 0.684 ± 0.14

**Q.** What about the surviving fraction (TIOGUANINE [6]; 10 nM) of the same test system?
**A.** 0.988 ± 0.083

**Q.** What about the surviving fraction (TIOGUANINE [6]; 50 nM) of the same test system?
**A.** 0.778 ± 0.18

**Q.** And the surviving fraction (TIOGUANINE [6]; 100 nM)?
**A.** 0.895 ± 0.15

**Q.** And the surviving fraction (TIOGUANINE [6]; 500 nM)?
**A.** 0.91 ± 0.1

**Q.** And the surviving fraction (TIOGUANINE [6]; 1000 nM)?
**A.** 1.11 ± 0.13

**Q.** What about the surviving fraction (SNX-5422 [7]; 0.5 nM) of the same test system?
**A.** 0.971 ± 0.16

**Q.** And the surviving fraction (SNX-5422 [7]; 1 nM)?
**A.** 1.26 ± 0.33

**Q.** And the surviving fraction (SNX-5422 [7]; 5 nM)?
**A.** 0.911 ± 0.033

**Q.** What about the surviving fraction (SNX-5422 [7]; 10 nM) of the same test system?
**A.** 0.865 ± 0.13

**Q.** And the surviving fraction (SNX-5422 [7]; 50 nM)?
**A.** 0.205 ± 0.085

**Q.** And the surviving fraction (SNX-5422 [7]; 100 nM)?
**A.** 0.033 ± 0.004

**Q.** And the surviving fraction (SNX-5422 [7]; 500 nM)?
**A.** 0.0307 ± 0.019

**Q.** And the surviving fraction (SNX-5422 [7]; 1000 nM)?
**A.** 0.037 ± 0.003

**Q.** What about the surviving fraction (MDV3100 [8]; 0.5 nM) of the same test system?
**A.** 0.866 ± 0.21

**Q.** And the surviving fraction (MDV3100 [8]; 1 nM)?
**A.** 1.01 ± 0.25

**Q.** What about the surviving fraction (MDV3100 [8]; 5 nM) of the same test system?
**A.** 0.913 ± 0.11

**Q.** What about the surviving fraction (MDV3100 [8]; 10 nM) of the same test system?
**A.** 0.952 ± 0.14

**Q.** And the surviving fraction (MDV3100 [8]; 50 nM)?
**A.** 0.702 ± 0.11

**Q.** What about the surviving fraction (MDV3100 [8]; 100 nM) of the same test system?
**A.** 0.998 ± 0.28

**Q.** What about the surviving fraction (MDV3100 [8]; 500 nM) of the same test system?
**A.** 1.17 ± 0.06

**Q.** What about the surviving fraction (MDV3100 [8]; 1000 nM) of the same test system?
**A.** 1.16 ± 0.065

**Q.** What about the “area under dose-response curve” value (AFATINIB [9]) of the same test system?
**A.** 1.3

**Q.** What about the “area under dose-response curve” value [10] of the same test system?
**A.** 3.31

**Q.** And the “area under dose-response curve” value (BI-2536 [11])?
**A.** 1.83

**Q.** What about the “area under dose-response curve” value (CANERTINIB [12]) of the same test system?
**A.** 1.92

**Q.** What about the “area under dose-response curve” value (SAPACITABINE [13]) of the same test system?
**A.** 3.5

**Q.** And the “area under dose-response curve” value (TIOGUANINE [14])?
**A.** 2.96

**Q.** What about the “area under dose-response curve” value (SNX-5422 [15]) of the same test system?
**A.** 1.7

**Q.** And the “area under dose-response curve” value (MDV3100 [16])?
**A.** 3.06
